Results as given in ChEMBL document CHEMBL1212786 (Antimicrob Agents Chemother, 2010).

Assays:
[1] = Intrinsic clearance in CD1 mouse liver microsomes at 1 uM after 5 to 30 mins by MS analysis in presence of NADPH; type: ADME, Microsome
Cytochrome P450 3A4 = Cytochrome P450 3A4 (Homo sapiens, UniProt P08684); test: Inhibition of human recombinant CYP3A4 after 30 mins; type: ADME
[2] = Apparent volume of distribution in Sprague-Dawley rat at 2 mg/kg, iv after 24 hrs by LC/MS/MS analysis; type: ADME, organism-based; design: dose 2 mg/kg, route intravenous; conditions: in vivo, read-out: Vz
[3] = AUC (0 to infinity) in monkey at 5 mg/kg, po after 24 hrs by LC/MS/MS analysis; type: ADME, organism-based, Macaca mulatta; design: time infinity, dose 5 mg/kg, route oral; conditions: rhesus monkey, plasma
Jurkat = test: cells; conditions: Homo sapiens
Hepatitis C virus [4] = test: microbe, parasite or virus in culture; conditions: Huh-7, 24 h
Description: Antiviral activity against Hepatitis C virus infected in human Huh7ET cells assessed as inhibition of viral replication after 24 hrs by luciferase reporter gene assay

Hepatitis C virus [5] = test: microbe, parasite or virus in culture; conditions: Huh-7, 72 h
Hepatitis C virus [6] = test: microbe, parasite or virus in culture; conditions: Huh-7, 120 h
Description: Antiviral activity against Hepatitis C virus infected in human Huh7ET cells assessed as inhibition of viral replication after 120 hrs by luciferase reporter gene assay

Sequence of Cytochrome P450 3A4 (P08684 whole entry): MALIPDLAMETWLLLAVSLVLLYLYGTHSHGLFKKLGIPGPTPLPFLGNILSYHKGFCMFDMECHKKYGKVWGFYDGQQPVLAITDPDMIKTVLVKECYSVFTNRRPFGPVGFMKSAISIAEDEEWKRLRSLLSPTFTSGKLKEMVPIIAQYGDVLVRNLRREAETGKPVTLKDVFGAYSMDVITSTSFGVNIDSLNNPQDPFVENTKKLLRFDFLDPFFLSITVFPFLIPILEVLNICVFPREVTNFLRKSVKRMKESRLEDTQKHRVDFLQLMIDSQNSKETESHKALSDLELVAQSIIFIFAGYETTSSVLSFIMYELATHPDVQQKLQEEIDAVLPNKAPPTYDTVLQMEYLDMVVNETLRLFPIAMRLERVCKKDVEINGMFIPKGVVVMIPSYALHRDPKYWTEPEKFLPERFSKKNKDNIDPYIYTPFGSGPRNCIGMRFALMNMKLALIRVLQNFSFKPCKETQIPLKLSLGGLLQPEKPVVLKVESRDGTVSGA

- clearance [1]: 9 µL/min/mg
- IC50 (Cytochrome P450 3A4): 58.5 µM
- Vd [2]: 3.37 L/kg
- AUC(0-inf) [3]: 27900 ng·h/mL
- EC50 (Jurkat): 9.9 µM
- EC50 (Hepatitis C virus [4]): 200 nM
- EC50 (Hepatitis C virus [5]): 90 nM
- EC50 (Hepatitis C virus [6]): 150 nM
Compound: C/C=C/C[C@@H](C)[C@@H](O)[C@H]1C(=O)N[C@@H](CC)C(=O)N(C)C(SCCN(C)C)C(=O)N(C)[C@@H](CC(C)(C)O)C(=O)N[C@@H](C(C)C)C(=O)N(C)[C@@H](CC(C)C)C(=O)N[C@@H](C)C(=O)N[C@H](C)C(=O)N(C)[C@@H](CC(C)C)C(=O)N(C)[C@@H](CC(C)C)C(=O)N(C)[C@@H](C(C)C)C(=O)N1C (single isomer, unassigned) [SCY 635]
